Marks after values point to notes of the source that are not given here.
Assays:
[1] = tested on: A431 human epidermal carcinoma xenograft; experiment: A431 human epidermal carcinoma xenograft model; assay type: in vivo, nude mice; conditions: for Tumor Weight (x ± S.D.) / Tumor Inhibitor Rate / Relative Tumor Volume (x ± S.D.) / T/C / Tumor Volume (x ± S.D.): A431 xenograft; for Tumor Inhibitor Rate: by tumor weight; for Relative Tumor Volume (x ± S.D.) / T/C / Tumor Volume (x ± S.D.): end of the assay
Protocol: (§1) Tumor cells were cultured in an incubator at 37° C. with 5% CO2 using MEM medium containing 10% inactivated fetal calf serum, 100 U/ml penicillin and 100 µg/ml streptomycin. The tumor cells in logarithmic growth phase were collected, adjusted to an appropriate density and injected subcutaneously into nude mice (0.2 ml per mouse). An xenograft model was established after a tumor was formed in the nude mice and passaged in vivo for more than three generations.
(§2) The above-mentioned tumor-bearing mice were sacrificed by cervical dislocation. The tumor was taken out and cut into small tumor pieces (about 2 mm×2 mm×2 mm) under sterile conditions. The small tumor pieces were inoculated subcutaneously into nude mice with a trocar. […] The animals in each group were subjected to intragastric administration once a day for 14 consecutive days. The day of grouping is assigned as day 0.
(§3) Tumor volume is calculated as: volume =0.5×long diameter×short diameter^2. The relative tumor volume (RTV) was calculated based on the measurements as: RTV=Vt/V0, wherein V0 is the tumor volume measured when the animals were grouped to be administrated (i.e., d0), and Vt is the tumor volume when each measurement was taken. Relative tumor proliferation rate T/C was calculated based on relative tumor volume, in which T is the mean value of the relative tumor volume of the treatment group, and C is the mean value of the relative tumor volume of the solvent control group. T/C was calculated as follows: T/C=TRTV/CRTV×100% (TRTV: RTV of the treatment group; CRTV:
RTV of the solvent control group) Inhibition rate (%)=(mean tumor weight of the solvent control group−mean tumor weight of the treatment group)/mean tumor weight of the solvent control group×100%. Percentage of body weight change=Wn/W0×100% (Wn: mean body weight of experimental animals in each group at day n, W0: mean body weight of experimental animals in each group at day 0).
(§4) One-Way ANOVA test was conducted in SPSS13.0, performing statistical analysis between groups.

[2] = tested on: HCC827 human non-small cell lung cancer xenograft; experiment: HCC827 human non-small cell lung cancer xenograft model; assay type: in vivo, nude mice; conditions: for Tumor Weight (x ± S.D.) / Tumor Inhibitor Rate / Relative Tumor Volume (x ± S.D.) / T/C / Tumor Volume (x ± S.D.): HCC827 xenograft; for Tumor Inhibitor Rate: by tumor weight; for Relative Tumor Volume (x ± S.D.) / T/C / Tumor Volume (x ± S.D.): end of the assay
Protocol: as §1, with “μg/ml” for “µg/ml”
as §2, with “nude mice on the right shoulder blade with a” for “nude mice with a”, “intragastric administration daily for 14” for “intragastric administration once a day for 14”
as §3, with “volume=0.5×long” for “volume =0.5×long”, “CRTV: RTV of the solvent control group) Inhibition rate (%)=(mean tumor weight of the solvent control group−mean tumor weight of the treatment group)/mean tumor weight of the solvent control group x 100%. Percentage of body weight change=Wn/W0×100% (Wn: mean body weight of experimental animals in each group at day n, W0: mean body weight of experimental animals in each group at day 0).” for “CRTV:”
as §4

[3] = A431 xenograft nude mice, 20, 40 and 80 mg/kg intragastric once a day for 14 days
[4] = 20 mg/kg intragastric once a day for 14 days
[5] = 40 mg/kg intragastric once a day for 14 days
[6] = 80 mg/kg intragastric once a day for 14 days
[7] = HCC827 xenograft nude mice, 20, 40 and 80 mg/kg intragastric daily for 14 days
[8] = 20 mg/kg intragastric daily for 14 days
[9] = 40 mg/kg intragastric daily for 14 days
[10] = 80 mg/kg intragastric daily for 14 days

## COCCOc1cc2ncnc(Nc3ccc(F)c(Cl)c3)c2cc1NC(=O)C=C1CCN(CCOC)CC1.CS(=O)(=O)O [Compound 3, N-[4-(3-chloro-4-fluorophenylamino)-7-(2-methoxyethoxy)quinazolin-6-yl]-2-[1-(2-methoxyethyl)piperidin-4-ylidene]acetamide dimethylsulfonate]
[1]; [3]
  Body weights of the experimental animals: not significantly reduced
  abnormality in the experimental animals: no significant abnormality was observed
[1]; [4]
  Tumor Weight (x ± S.D.): 0.232 ± 0.312 g
  Tumor Inhibitor Rate: 68.6%
  Relative Tumor Volume (x ± S.D.): 2.3 ± 1.5
  T/C: 30.6%
  Tumor Volume (x ± S.D.): 424.9 ± 434.0*** mm^3
[1]; [5]
  Tumor Weight (x ± S.D.): 0.199 ± 0.153 g
  Tumor Inhibitor Rate: 73.2%
  Relative Tumor Volume (x ± S.D.): 2.8 ± 2.3
  T/C: 37.7%
  Tumor Volume (x ± S.D.): 418.9 ± 284.7*** mm^3
[1]; [6]
  Tumor Weight (x ± S.D.): 0.107 ± 0.126 g
  Tumor Inhibitor Rate: 85.6%
  Relative Tumor Volume (x ± S.D.): 1.4 ± 0.9
  T/C: 19.1%
  Tumor Volume (x ± S.D.): 254.7 ± 228.2*** mm^3
[2]; [7]
  Body weights of the experimental animals: not significantly reduced
  abnormality in the experimental animals: no significant abnormality was observed
[2]; [8]
  Tumor Weight (x ± S.D.): 0.045 ± 0.074 g
  Tumor Inhibitor Rate: 91.7%
  Relative Tumor Volume (x ± S.D.): 0.36 ± 0.45
  T/C: 5.0%
  Tumor Volume (x ± S.D.): 57.3 ± 77.6*** mm^3
[2]; [9]
  Tumor Weight (x ± S.D.): 0.026 ± 0.026 g
  Tumor Inhibitor Rate: 95.2%
  Relative Tumor Volume (x ± S.D.): 0.13 ± 0.10
  T/C: 1.8%
  Tumor Volume (x ± S.D.): 18.4 ± 11.6*** mm^3
[2]; [10]
  Tumor Weight (x ± S.D.): 0.014 ± 0.013 g
  Tumor Inhibitor Rate: 97.4%
  Relative Tumor Volume (x ± S.D.): 0.13 ± 0.04
  T/C: 1.8%
  Tumor Volume (x ± S.D.): 20.9 ± 8.6*** mm^3
